Assay results: patent US7282348B2, “Kit for measuring cytotoxicity of a test agent” (Promega Corporation, priority 2002, dated 2007)

Test system: L929 cells
Experiment: Cytotoxicity of TNFα measured by LDH release (resazurin/diaphorase fluorescence)
Assay type: cell-based, mouse
Conditions: 20 hours incubation, in the presence of actinomycin D 1 μg/ml
Method: A reagent solution was prepared combining a lyophilized substrate mixture with the assay buffer containing resazurin, and all of the ingredients required to measure the release of LDH from dead cells. The buffer solvent used to reconstitute the lyophilized substrate mixture was designed so that when it is used to reconstitute the mixture, the resulting solution has an osmolarity that is compatible with living cells. That is, the resulting solution was isotonic with the cells. When used to reconstitute the lyophilized substrate mix, the reagent solution contained:
L929 cells were cultured in F-12/DME with 10% FBS and serially-diluted in a microtiter plate to yield duplicate wells containing approximately 0, 1562, 3125, 6250, 12,500, 25,000, and 50,000 cells per well, in 90 μl total volume. Cells were incubated at 37° C. for sufficient time to allow attachment (about 1.5 hours). […] The fluorescence of each well was then measured (excitation 560 nm, emission 590 nm).
L929 cells (2000 cells/well) were prepared using a 384-well tissue culture plate in F-12/DME medium supplemented with 10% horse serum. […] Fluorescence was then determined at 560 nm excitation and 590 nm emission.

## TNFα
  concentration at or above which fluorescence remained essentially constant (all of the cells lysed): about 0.125 ng/ml
TNF concentrations from zero to about 0.125 ng/ml
  observed fluorescence (560 nm excitation, 590 nm emission) as a measure of cell lysis: rose in a TNFα dose-dependent fashion
